Data as given in paper PMC10534827 (Pharmaceuticals, 2023).

Columns and labels:
[1] = molecular target: T1, Acetylcholinesterase from Electrophorus electricus (Electrophorus electricus, UniProt O42275); test: biochemical; type: biochemical; details: for inhibition at 1000 µM: 1 mM solution of the tested compound, read-out: Activity [%] (inhibition percentage of AChE); for SI AChE: IC50(BChE)/IC50(AChE); for IC50: mean ± SD of three experiments, read-out: AChE IC50
T1 construct: purchased Sigma-Aldrich, Hamburg, Germany
T1 sequence (O42275 24-633): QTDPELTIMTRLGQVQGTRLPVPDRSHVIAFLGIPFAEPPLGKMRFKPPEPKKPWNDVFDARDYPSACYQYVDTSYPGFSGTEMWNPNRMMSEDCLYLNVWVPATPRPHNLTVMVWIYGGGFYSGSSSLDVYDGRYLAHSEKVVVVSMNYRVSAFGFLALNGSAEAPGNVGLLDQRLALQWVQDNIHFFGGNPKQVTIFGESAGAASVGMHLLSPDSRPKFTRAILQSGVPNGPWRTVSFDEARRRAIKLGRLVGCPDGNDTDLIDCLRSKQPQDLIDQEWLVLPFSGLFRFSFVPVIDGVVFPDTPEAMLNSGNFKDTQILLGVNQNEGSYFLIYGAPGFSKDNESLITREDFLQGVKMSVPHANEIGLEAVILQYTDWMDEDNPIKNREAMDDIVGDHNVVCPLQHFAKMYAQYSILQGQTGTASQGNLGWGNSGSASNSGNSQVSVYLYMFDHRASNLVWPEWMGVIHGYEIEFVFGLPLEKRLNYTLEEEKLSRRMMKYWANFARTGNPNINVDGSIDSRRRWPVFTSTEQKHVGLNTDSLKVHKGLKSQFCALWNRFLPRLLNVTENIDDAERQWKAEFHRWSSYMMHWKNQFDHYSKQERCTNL
Description: (§1) AChE and BChE inhibitory activity was measured using the microplate assay described by Ellman et al. [68] with the modifications added by López et al. [36]. The compounds were tested at concentrations between 10^−3 and 10^−8 M. First, all compounds were dissolved in 1% DMSO in a concentration of 1 mg/mL.
(§2) Incubation of the plates was performed at room temperature for 30 min. Then, 100 μL of substrate solution were added to start the enzymatic reaction. […] Enzyme activity was calculated as an inhibition percentage compared to an assay including buffer instead of an inhibitor. […] All data were analyzed with the software package Prism 3 (Graph Pad Inc., San Diego, CA, USA).

[2] = molecular target: T2, butyrylcholinesterase from equine serum (Equus caballus, UniProt P81908); test: biochemical; details: for inhibition at 1000 µM: 1 mM solution of the tested compound, read-out: Activity [%] (inhibition percentage of BChE); for IC50: mean ± SD of three experiments, read-out: BChE IC50; for SI BChE: IC50(AChE)/IC50(BChE)
T2 construct: butyrylcholinesterase from equine serum; purchased Sigma-Aldrich, Hamburg, Germany; host or cells: equine serum
T2 sequence (P81908 whole entry): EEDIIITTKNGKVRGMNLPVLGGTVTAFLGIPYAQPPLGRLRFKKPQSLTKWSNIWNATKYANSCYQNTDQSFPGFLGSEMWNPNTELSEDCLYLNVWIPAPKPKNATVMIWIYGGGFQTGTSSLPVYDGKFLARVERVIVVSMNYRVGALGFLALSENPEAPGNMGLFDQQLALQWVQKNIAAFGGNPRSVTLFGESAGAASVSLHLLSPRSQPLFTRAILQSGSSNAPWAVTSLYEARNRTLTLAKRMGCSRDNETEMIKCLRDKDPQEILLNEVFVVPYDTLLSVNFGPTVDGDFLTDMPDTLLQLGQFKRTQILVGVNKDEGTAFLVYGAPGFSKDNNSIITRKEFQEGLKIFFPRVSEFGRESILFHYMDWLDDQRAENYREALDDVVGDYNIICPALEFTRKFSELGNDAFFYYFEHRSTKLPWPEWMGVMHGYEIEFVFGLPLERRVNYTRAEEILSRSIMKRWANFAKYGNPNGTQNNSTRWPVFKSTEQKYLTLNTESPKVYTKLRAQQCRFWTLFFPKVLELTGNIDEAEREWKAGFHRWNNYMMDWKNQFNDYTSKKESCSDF
Description: as §1, §2

[3] = tested on: Neuro-2a cells; test: MTT cytotoxicity, Neuro-2a; type: cell-based, murine; details: Mus musculus, N2a; MTT, 72 h exposure; read-out: Neuro-2a IC50
[4] = tested on: SH-SY5Y cells; test: MTT cytotoxicity, SH-SY5Y; type: cell-based, human; details: Homo sapiens, SH-SY5Y; MTT, 72 h exposure; read-out: SH-SY5Y IC50
[5] = tested on: CCL-1 cells; test: MTT cytotoxicity, CCL-1 normal fibroblasts; type: cell-based, murine; details: Mus musculus, Fibroblast; MTT, 72 h exposure; read-out: CCL-1 IC50
[6] = ABTS radical scavenging assay; details: 734 nm after 5 min
Description: These compounds were also tested for their antioxidant activities by using the ABTS [2,2′-azinobis (3-ethylbenzothiazoline-6-sulfonic acid)] cation radical decolorization method (Table 4). The BHT [41] was used for comparison. The ABTS cation radical is produced by oxidation of the ABTS molecule with strong oxidizing agents, such as potassium persulfate in water.
For ABTS assay, the procedure followed the method of Arnao et al. [71] with some modifications. […] The working solution was then prepared by mixing the two stock solutions in equal quantities and allowing them to react for 14 h at room temperature in the dark. […] A fresh ABTS solution was prepared for each assay. […] The ABTS scavenging capacity of the compound was calculated as follows:ABTS radical scavenging activity (%) = ((Abscontr. − Abssample)/Abscontr.) ×100, where Abscontr. is the absorbance of DPPH radical with 300 μL MeOH, Abssample is the absorbance of DPPH radical solution mixed with the sample. […] BHT was used as positive control.

[7] = Ferric reducing antioxidant power (FRAP); details: 150 μL of 5 mM compound, 30 min, 593 nm, Trolox equivalent
[8] = Lipid peroxidation in linoleic acid system, FTC method; details: 10 mM compound, 500 nm
Description: The antioxidant activity of studied compounds against lipid peroxidation was measured through ammonium thiocyanate assay as described by Takao et al. [66] with some modifications. […] A 10 μL aliquot of the reaction solution was then added to 200 μL of 70% (v/v) ethanol and 10 μL of 30% (w/v) ammonium thiocyanate. […] Aliquots were assayed every 24 h until the day after the absorbance of the control solution (without compound) reached maximum value. BHT (10 mM) was used as positive control.

[9] = PAMPA-BBB permeability; type: in vitro ADME; details: for PAMPA BBB −logPe: experimentally measured BBB permeability
Text: At the same time, they needed to fulfill the requirement for good BBB permeation in order to achieve sufficient brain exposure. Although transport across the BBB is quite a complex phenomenon, passive diffusion is still the primary route for exogenous substances to access that target. So, the selected compounds were subjected to an in vitro PAMPA-BBB assay, relying on the capacity of the method in distinguishing the candidates with good BBB passive permeabilities. […].
The blood–brain barrier permeabilities were measured by PAMPA Permeability Analyzer (pIONInc, Billerica, MA, USA). The tested compounds and reference standards were prepared as 10 mM stock solutions in DMSO and further diluted in Prisma HT buffer pH 7.4. The experiment followed the BBB Protocol: 200 μL sample’s aliquots in the donor compartment, Brain Sink Buffer aliquots (200 μL) in the acceptor wells, BBB-1 lipid for coating the permeation membranes, “sandwich” assembly with the acceptor plate on top of the donor one, and incubation at temperature 25 °C for 4 h under humidity control without stirring. For permeability assessment, UV spectra of the blank, reference, donor, and acceptor plates were collected at wavelength 250–500 nm. […]. Samples were analyzed in triplicate and average values were reported. […]. Theophylline, corticosterone, and propranolol HCl were used as reference standards to control the quality and consistency of the BBB permeability experiment.

[10] = DPPH radical scavenging activity; details: 300 μL of 5 mM compound in MeOH, 30 min, 517 nm
Description: The DPPH (2,2-diphenyl-1-picryl-hydrazyl-hydrate) free radical scavenging activity method is based on the neutralization of the DPPH radical by an antioxidant.
Free radical scavenging activity was measured using DPPH method [69, 70] with slight modification. Here, 300 μL of 5 mM solutions of tested compounds in MeOH were added to 2 mL methanolic solution of DPPH (2 mg/mL). […] Results were evaluated as percentage scavenging of radical:DPPH radical scavenging activity (%) = ((Abscontr. − Abssample)/Abscontr.) ×100, where Abscontr. is the absorbance of DPPH radical with 300 μL MeOH, Abssample is the absorbance of DPPH radical solution mixed with sample. BHT was used as positive control.

Compound: O=C(N/N=C/C1CCN(Cc2ccccc2)CC1)c1ccc(O)cc1O [3b, N’-[(E)-(1-benzylpiperidin-4-yl)methylidene]-2,4-dihydroxybenzohydrazide]
- inhibition at 1000 µM [1]: 89.3%
- SI AChE [1]: 13.22
- IC50 [1]: 19.8 ± 0.95 µM
- inhibition at 1000 µM [2]: 75.9%
- IC50 [2]: 262 ± 8.75 µM
- IC50 [3]: > 300 µM
- IC50 [4]: 138 µM
- IC50 [5]: 154 ± 7.3 µM
- ABTS Activity [6]: 93.22 ± 0.30%
- IC50 [6]: 2570 ± 100 µM
- FRAP [7]: 16.63 ± 0.98 μMTE
- Absorbance Day 1 [8]: 0.92 ± 0.06
- Absorbance Day 2 [8]: 0.93 ± 0.09
- Absorbance Day 3 [8]: 0.95 ± 0.05
- Absorbance Day 4 [8]: 0.96 ± 0.01
- Absorbance Day 5 [8]: 1.00 ± 0.02
- BBB permeability class ([9]; PAMPA-BBB): moderately permeable
- PAMPA BBB −logPe [9]: 5.873
- DPPH Activity [10]: 13.30 ± 0.83%

Compound: O=C(Cc1c[nH]c2ccccc12)N/N=C/C1CCN(Cc2ccccc2)CC1 [3a, N’-[(E)-(1-benzylpiperidin-4-yl)methylidene]-2-(1H-indol-3-yl)acetohydrazide]
- inhibition at 1000 µM [1]: 78.9%
- IC50 [1]: 76.5 ± 3.04 µM
- inhibition at 1000 µM [2]: 80.4%
- SI BChE [2]: 1.35
- IC50 [2]: 56.5 ± 0.2 µM
- IC50 [3]: > 300 µM
- IC50 [4]: 129 ± 7.5 µM
- IC50 [5]: 138 ± 9.8 µM
- FRAP [7]: 15.42 ± 0.74 μMTE
- Absorbance Day 1 [8]: 0.87 ± 0.03
- Absorbance Day 2 [8]: 0.87 ± 0.08
- Absorbance Day 3 [8]: 0.72 ± 0.07
- Absorbance Day 4 [8]: 0.72 ± 0.05
- Absorbance Day 5 [8]: 0.71 ± 0.08
- PAMPA BBB −logPe [9]: 4.420
- DPPH Activity [10]: 5.74 ± 0.39%

Compound: COc1ccc2[nH]cc(/C=N/NC(=O)Cc3c[nH]c4ccccc34)c2c1 [3n, 2-(1H-indol-3-yl)-N’-[(E)-(5-methoxy-1H-indol-3-yl)methylidene]acetohydrazide]
- inhibition at 1000 µM [1]: 29.2%
- IC50 [1]: > 1000 µM
- inhibition at 1000 µM [2]: 73.7%
- SI BChE [2]: 47.34
- IC50 [2]: 21.1 ± 1.48 µM
- IC50 [3]: 83.7 ± 8.3 µM
- IC50 [4]: 108 ± 9.4 µM
- IC50 [5]: 48.2 ± 6.4 µM
- ABTS Activity [6]: ≥100%
- IC50 [6]: 770 ± 60 µM
- FRAP [7]: 14.30 ± 0.56 μMTE
- Absorbance Day 1 [8]: 0.85 ± 0.05
- Absorbance Day 2 [8]: 0.87 ± 0.07
- Absorbance Day 3 [8]: 0.89 ± 0.04
- Absorbance Day 4 [8]: 0.90 ± 0.01
- Absorbance Day 5 [8]: 0.92 ± 0.06
- PAMPA BBB −logPe [9]: 4.084
- DPPH Activity [10]: 40.62 ± 0.83%

Compound: O=C(N/N=C/C1CCN(Cc2ccccc2)CC1)c1c[nH]c2ccccc12 [3c, N’-[(E)-(1-benzylpiperidin-4-yl)methylidene]-1H-indole-3-carbohydrazide]
- inhibition at 1000 µM [1]: 72%
- SI AChE [1]: 2.45
- IC50 [1]: 10.8 ± 1.66 µM
- inhibition at 1000 µM [2]: 77%
- IC50 [2]: 26.3 ± 3.11 µM
- IC50 [3]: > 300 µM
- IC50 [4]: 97.3 µM
- IC50 [5]: 168 ± 10.4 µM
- ABTS Activity [6]: 36.69 ± 0.70%
- IC50 [6]: > 5000 µM
- FRAP [7]: 38.97 ± 3.58 μMTE
- Absorbance Day 1 [8]: 0.89 ± 0.07
- Absorbance Day 2 [8]: 0.87 ± 0.02
- Absorbance Day 3 [8]: 0.85 ± 0.05
- Absorbance Day 4 [8]: 0.85 ± 0.07
- Absorbance Day 5 [8]: 0.74 ± 0.05
- PAMPA BBB −logPe [9]: 4.466
- DPPH Activity [10]: 30.05 ± 0.55%

Compound: O=S(=O)(N/N=C/c1c[nH]c2ccc(OCc3ccccc3)cc12)c1ccccc1 [5k]
- inhibition at 1000 µM [1]: 35.4%
- IC50 [1]: > 1000 µM
- inhibition at 1000 µM [2]: 4.97%
- IC50 [2]: > 1000 µM
- IC50 [3]: 77.7 ± 6.9 µM
- IC50 [4]: 135 ± 14 µM
- IC50 [5]: 321 ± 16.2 µM
- ABTS Activity [6]: ≥100%
- IC50 [6]: 2570 ± 130 µM
- FRAP [7]: 22.52 ± 1.29 μMTE
- Absorbance Day 1 [8]: 0.80 ± 0.04
- Absorbance Day 2 [8]: 0.80 ± 0.09
- Absorbance Day 3 [8]: 0.83 ± 0.05
- Absorbance Day 4 [8]: 0.84 ± 0.08
- Absorbance Day 5 [8]: 0.87 ± 0.09
- DPPH Activity [10]: 47.18 ± 1.14%

Compound: COc1ccc(C(=O)N/N=C/C2CCN(Cc3ccccc3)CC2)cc1 [3d, N’-[(E)-(1-benzylpiperidin-4-yl)methylidene]-4-methoxybenzohydrazide]
- inhibition at 1000 µM [1]: 81.2%
- SI AChE [1]: 20.19
- IC50 [1]: 9.77 ± 0.76 µM
- inhibition at 1000 µM [2]: 72.9%
- IC50 [2]: 197 ± 18.7 µM
- IC50 [3]: > 300 µM
- IC50 [4]: 122 ± 9.2 µM
- IC50 [5]: 220 µM
- ABTS Activity [6]: ≥100%
- IC50 [6]: 1050 ± 40 µM
- FRAP [7]: 15.87 ± 1.41 μMTE
- Absorbance Day 1 [8]: 0.85 ± 0.02
- Absorbance Day 2 [8]: 0.86 ± 0.02
- Absorbance Day 3 [8]: 0.88 ± 0.05
- Absorbance Day 4 [8]: 0.85 ± 0.07
- Absorbance Day 5 [8]: 0.84 ± 0.09
- DPPH Activity [10]: 40.80 ± 3.10%

Compound: COc1ccc(/C=N/NS(=O)(=O)c2ccccc2)cc1OC [5i, N’-[(E)-(3,4-dimethoxyphenyl)methylidene]benzenesulfonohydrazide]
- inhibition at 1000 µM [1]: 2.63%
- IC50 [1]: > 1000 µM
- inhibition at 1000 µM [2]: 7.67 ± 0.99%
- IC50 [2]: > 1000 µM
- IC50 [3]: 109 ± 5.1 µM
- IC50 [4]: 40.3 ± 6.1 µM
- IC50 [5]: 147 µM
- ABTS Activity [6]: 65.29 ± 2.34%
- IC50 [6]: 3740 ± 50 µM
- FRAP [7]: 14.67 ± 0.81 μMTE
- Absorbance Day 1 [8]: 0.81 ± 0.08
- Absorbance Day 2 [8]: 0.83 ± 0.01
- Absorbance Day 3 [8]: 0.83 ± 0.09
- Absorbance Day 4 [8]: 0.81 ± 0.02
- Absorbance Day 5 [8]: 0.83 ± 0.03
- DPPH Activity [10]: 16.21 ± 3.01%

Compound: COc1cc(/C=N/NC(=O)Cc2c[nH]c3ccccc23)ccc1O [3q, N’-[(E)-(4-hydroxy-3-methoxyphenyl)methylidene]-2-(1H-indol-3-yl)acetohydrazide]
- inhibition at 1000 µM [1]: 12.8%
- IC50 [1]: > 1000 µM
- inhibition at 1000 µM [2]: 13.9%
- IC50 [2]: > 1000 µM
- IC50 [3]: 254 ± 13.7 µM
- IC50 [4]: 141 ± 8.8 µM
- IC50 [5]: 170 ± 14 µM
- ABTS Activity [6]: ≥100%
- IC50 [6]: 2380 ± 70 µM
- FRAP [7]: 15.60 ± 0.90 μMTE
- Absorbance Day 1 [8]: 0.76 ± 0.03
- Absorbance Day 2 [8]: 0.77 ± 0.08
- Absorbance Day 3 [8]: 0.79 ± 0.03
- Absorbance Day 4 [8]: 0.84 ± 0.05
- Absorbance Day 5 [8]: 0.91 ± 0.09
- DPPH Activity [10]: 20.40 ± 0.83%

Compound: CC(C)(C)OC(=O)NCC(=O)N/N=C/c1cn(Cc2ccccc2)c2ccccc12 [3m, tert-butyl(2-{(2E)-2-[(1-benzyl-1H-indol-3-yl)methylidene]hydrazinyl}-2-oxoethyl)carbamate]
- inhibition at 1000 µM [1]: 2.01%
- IC50 [1]: > 1000 µM
- inhibition at 1000 µM [2]: 59.4%
- SI BChE [2]: 3.05
- IC50 [2]: 327 ± 34.3 µM
- IC50 [3]: 109 ± 9.1 µM
- IC50 [4]: 7.2 ± 1.8 µM
- IC50 [5]: 65.4 ± 5.1 µM
- ABTS Activity [6]: 36.20 ± 1.40%
- IC50 [6]: > 5000 µM
- FRAP [7]: 19.06 ± 1.96 μMTE
- Absorbance Day 1 [8]: 0.89 ± 0.09
- Absorbance Day 2 [8]: 0.89 ± 0.01
- Absorbance Day 3 [8]: 0.92 ± 0.05
- Absorbance Day 4 [8]: 0.95 ± 0.01
- Absorbance Day 5 [8]: 0.96 ± 0.08
- PAMPA BBB −logPe [9]: 4.377
- DPPH Activity [10]: 32.06 ± 4.70%

Compound: COc1ccc(/C=N/NS(=O)(=O)c2ccc(C)cc2)cc1OC [5h, N’-[(E)-(3,4-dimethoxyphenyl)methylidene]-4-methylbenzenesulfonohydrazide]
- inhibition at 1000 µM [1]: 10.5%
- IC50 [1]: > 1000 µM
- inhibition at 1000 µM [2]: 26.6 ± 5.11%
- IC50 [2]: > 1000 µM
- IC50 [3]: 136 ± 12.6 µM
- IC50 [4]: 42 ± 5.2 µM
- IC50 [5]: 160 µM
- ABTS Activity [6]: ≥100%
- IC50 [6]: 1850 ± 30 µM
- FRAP [7]: 20.37 ± 0.90 μMTE
- Absorbance Day 1 [8]: 0.70 ± 0.09
- Absorbance Day 2 [8]: 0.82 ± 0.06
- Absorbance Day 3 [8]: 0.83 ± 0.05
- Absorbance Day 4 [8]: 0.83 ± 0.06
- Absorbance Day 5 [8]: 0.80 ± 0.05
- DPPH Activity [10]: 16.94 ± 1.09%
